# Where two headings read alike, the source gives them in different places.
# How the values were obtained:
# IκB-α = assay: Hypromatrix Array phosphorylation, TRiPS cell extracts; assay type: cell-based, human; design: key: 0 (negative); + to ++++ (positive); + to ++++ (positive); + to ++++ (positive); + to ++++ (positive); details: day 18 TRiPS cells + CD3/CD28 beads, 30 minutes at 37° C.; 0.5 mM DA-DKP or 1:500 dilution of HC 2626
# Procedure: (§1) The mechanism of action of DA-DKP and HC 2626 (containing MR-DKP) was investigated. […] After the incubation, the cells were lysed in Cell-Lytic Mammalian Cell Extraction Reagent (Sigma).
# (§2) The cell extracts were then separately incubated with duplicate Hypromatrix Arrays for 2 hours at room temperature, followed by two washes following the manufacturer's (Hypromatrix) protocol. The Hypromatrix Array is a nylon membrane blotted with antibodies to the transcription factors listed in Table 1 (custom manufactured by Hypromatrix). An antibody cocktail specific for phosphorylated-tyrosine, phosphorylated-serine and phosphorylated-threonine (Zymed) was added, incubated for 1 hour. Then, an anti-immunoglobulin antibody labeled with biotin was added. After washing the anti-immunoglobulin-biotin away, streptavidin-peroxidase was added, and the arrays given a final wash before adding a peroxidase-reactive luminescent substrate.
# p38 MAPK = assay: as above; assay type: cell-based, human; design: key: 0 (negative); + to ++++ (positive); + to ++++ (positive); + to ++++ (positive); + to ++++ (positive); details: day 18 TRiPS cells + CD3/CD28 beads, 30 minutes at 37° C.; 0.5 mM DA-DKP or 1:500 dilution of HC 2626
# Procedure: as §1, §2
# fyn = assay: as above; assay type: cell-based, human; design: key: 0 (negative); + to ++++ (positive); + to ++++ (positive); + to ++++ (positive); + to ++++ (positive); details: day 18 TRiPS cells + CD3/CD28 beads, 30 minutes at 37° C.; 0.5 mM DA-DKP or 1:500 dilution of HC 2626
# Procedure: as §1, §2
# CBP = assay: as above; assay type: cell-based, human; design: key: 0 (negative); + to ++++ (positive); + to ++++ (positive); + to ++++ (positive); + to ++++ (positive); details: day 18 TRiPS cells + CD3/CD28 beads, 30 minutes at 37° C.; 0.5 mM DA-DKP or 1:500 dilution of HC 2626
# Procedure: as §1, §2
# Akt ½ = assay: as above; assay type: cell-based, human; design: key: 0 (negative); + to ++++ (positive); + to ++++ (positive); + to ++++ (positive); + to ++++ (positive); details: day 18 TRiPS cells + CD3/CD28 beads, 30 minutes at 37° C.; 0.5 mM DA-DKP or 1:500 dilution of HC 2626
# Procedure: as §1, §2
# pI3 kinase/p85 = assay: as above; assay type: cell-based, human; design: key: 0 (negative); + to ++++ (positive); + to ++++ (positive); + to ++++ (positive); + to ++++ (positive); details: day 18 TRiPS cells + CD3/CD28 beads, 30 minutes at 37° C.; 0.5 mM DA-DKP or 1:500 dilution of HC 2626
# Procedure: as §1, §2
# Rap1 = assay: as above; assay type: cell-based, human; design: key: 0 (negative); + to ++++ (positive); + to ++++ (positive); + to ++++ (positive); + to ++++ (positive); details: day 18 TRiPS cells + CD3/CD28 beads, 30 minutes at 37° C.; 0.5 mM DA-DKP or 1:500 dilution of HC 2626
# Procedure: as §1, §2
# csk = assay: as above; assay type: cell-based, human; design: key: 0 (negative); + to ++++ (positive); + to ++++ (positive); + to ++++ (positive); + to ++++ (positive); details: day 18 TRiPS cells + CD3/CD28 beads, 30 minutes at 37° C.; 0.5 mM DA-DKP or 1:500 dilution of HC 2626
# Procedure: as §1, §2
# c-jun = assay: as above; assay type: cell-based, human; design: key: 0 (negative); + to ++++ (positive); + to ++++ (positive); + to ++++ (positive); + to ++++ (positive); details: day 18 TRiPS cells + CD3/CD28 beads, 30 minutes at 37° C.; 0.5 mM DA-DKP or 1:500 dilution of HC 2626
# Procedure: as §1, §2
# ERK1 = assay: Hypromatrix Array phosphorylation, TRiPS cell extracts; assay type: cell-based, human; design: key to ERK1 phosphorylation score: 0 (negative); + to ++++ (positive); + to ++++ (positive); + to ++++ (positive); + to ++++ (positive); details: 30 minutes at 37° C., 0.5 mM DA-DKP or 1:500 dilution of HC 2626
# Procedure: as §1, §2
# [1] = 12 days after stimulation with anti-CD3 OKT3 antibody, 0.5 mM DA-DKP
substance,measurement,setting,value
Asp-Ala diketopiperazine [DA-DKP],IκB-α phosphorylation score,IκB-α,+
same,p38 MAPK phosphorylation score,p38 MAPK,+++
same,fyn phosphorylation score,fyn,+
same,CBP phosphorylation score,CBP,++
same,Akt ½ phosphorylation score,Akt ½,+++
same,pI3 kinase/p85 phosphorylation score,pI3 kinase/p85,+
same,Rap1 phosphorylation score,Rap1,++
same,csk phosphorylation score,csk,+
same,c-jun phosphorylation score,c-jun,+
same,secretion of IL-16 from TriPS cells (FIG. 2),TriPS cells; [1],decreased
same,secretion of TNFα from TriPS cells (FIG. 2),TriPS cells; [1],decreased
same,release of pre-formed cytokines,TriPS cells; TRiPS cells,inhibited
same,effect on TNFα secretion from TriPS cells (FIG. 4),TriPS cells; early in the stimulation cycle,inhibitory
same,effect on TNFα secretion from TriPS cells (FIG. 4),TriPS cells; later in the cycle (day 14),stimulatory
same,ERK1 phosphorylation score,ERK1; day 18 TRiPS cells + CD3/CD28 beads,+
same,cytokine transcriptional factor activation (ERK1/2),"ERK1; day 18 TRiPS cells, CD3/CD28 beads",inhibited

# Reference: patent US11369598B2, “Treatment of T-cell mediated diseases” (Ampio Pharmaceuticals, Inc., priority 2003, dated 2022)
